Reference: patent publication US10821100B2, “Triazolone compounds as mPGES-1 inhibitors” (Glenmark Pharmaceuticals S.A., priority 2012, dated 2020)
pIC50: −log10 of the molar value.

Molecular target: T1, Recombinant human mPGES-1 (Homo sapiens, UniProt O14684)
T1 construct: made in house; host or cells: CHO cells (crude microsomal fractions)
T1 sequence (O14684 1-152): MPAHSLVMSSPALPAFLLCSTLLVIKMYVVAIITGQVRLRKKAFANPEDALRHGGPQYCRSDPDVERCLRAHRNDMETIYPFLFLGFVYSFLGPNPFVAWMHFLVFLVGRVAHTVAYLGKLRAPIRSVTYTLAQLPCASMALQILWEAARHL
Experiment: In-vitro screening of mPGES-1 inhibitors (inhibition of PGE2 formation from PGH2, HTRF detection)
Format: biochemical
Settings: mPGES-1 enzyme; for inhibition at 1 µM: 1 μM test compound, read-out: Percentage inhibition at 1 μM; for inhibition at 1 µM / inhibition at 10 µM: crude microsomal fractions; for inhibition at 10 µM: 10 μM test compound, read-out: Percentage inhibition at 10 μM; for pIC50: class symbols
Summary of the method: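 Crude CHO-expressed microsomes (40–60 μg/mL protein) preincubated 10 min with compound in 0.1 M potassium phosphate/2 mM EDTA containing 2.5 mM GSH, 0.5% DMSO final. PGH2 (15 μM) reacted 1 min, stopped with stannous chloride. PGE2 quantified by HTRF, IC50 from nonlinear regression of percent inhibition.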

SMILES | inhibition at 1 µM | inhibition at 10 µM | pIC50
COc1cc(-n2nc(-c3c(C)cccc3Cl)[nH]c2=O)ccc1C(=O)Nc1ccc(F)c(C(F)F)c1 [Example-53, 4-(3-(2-Chloro-6-methylphenyl)-5-oxo-4,5-dihydro-1H-1,2,4-triazol-1-yl)-N-(3-(difluoromethyl)-4-fluorophenyl)-2-methoxybenzamide] | 82.7% | 97.9% | > 7.30
O=C(NCc1ccc(Cl)c(-c2nn(-c3ccc(C(F)(F)F)cc3)c(=O)[nH]2)c1)c1ccno1 [Example-105, N-(4-Chloro-3-(5-oxo-1-(4-(trifluoromethyl)phenyl)-4,5-dihydro-H-1,2,4-triazol-3-yl)benzyl)isoxazole-5-carboxamide] | 73.9% | 96% | < 7.00
COc1cc(-n2nc(-c3c(Cl)cccc3Cl)[nH]c2=O)ccc1-c1nc(-c2ccc(Cl)cc2)no1 [Example-49, 1-(4-(3-(4-Chlorophenyl)-1,2,4-oxadiazol-5-yl)-3-methoxyphenyl)-3-(2,6-dichlorophenyl)-1H-1,2,4-triazol-5(4H)-one] | 89.2% | 96.3% | > 7.30
COc1cc(-n2nc(-c3c(F)cccc3Cl)[nH]c2=O)ccc1C(=O)Nc1nc2ccccc2[nH]1 [Example-46, N-(1H-Benzo[d]imidazol-2-yl)-4-(3-(2-chloro-6-fluorophenyl)-5-oxo-4,5-dihydro-1H-1,2,4-triazol-1-yl)-2-methoxybenzamide] | 59.8% | 72.1% | 
COc1cc(-n2nc(-c3cc(CNC(=O)C4CC4)ccc3Cl)[nH]c2=O)ccc1C(=O)Nc1cccc(C(F)F)c1 [Example-68, 4-(3-(2-Chloro-5-(cyclopropanecarboxamidomethyl)phenyl)-5-oxo-4,5-dihydro-1H-1,2,4-triazol-1-yl)-N-(3-(difluoromethyl)phenyl)-2-methoxybenzamide] | 97.4% | 96.4% | > 7.30
CC(C)(C)C(=O)NCc1ccc(Cl)c(-c2nn(-c3ccc(Cl)cc3)c(=O)[nH]2)c1F [Example-98, N-(4-Chloro-3-(1-(4-chlorophenyl)-5-oxo-4,5-dihydro-1H-1,2,4-triazol-3-yl)-2-fluorobenzyl)pivalamide] | 97.5% | 99.5% | > 7.30
COc1cc(-c2nn(-c3c(Cl)cccc3Cl)c(=O)[nH]2)ccc1C#Cc1cccc(Cl)c1F [Example-74] | 93.2% | 98.7% | 7.00 to 7.30
CC(C)(C)C#Cc1ccc(-c2nn(-c3c(Cl)ccc(CNC(=O)C(C)(C)C)c3F)c(=O)[nH]2)cc1 [Example-111, N-(4-Chloro-2-fluoro-3-(4,5-dihydro-3-(4-(3,3-dimethylbut-1-ynyl)phenyl)-5-oxo-1,2,4-triazol-1-yl)benzyl)pivalamide] | 87.2% | 96.2% | > 7.30
O=c1[nH]c(-c2c(F)cccc2Cl)nn1-c1ccc(C#Cc2ccc(C(F)(F)F)cc2Cl)cc1 [Example-7, 5-(2-Chloro-6-fluorophenyl)-2-(4-{[2-chloro-4-(trifluoromethyl)phenyl]ethynyl}phenyl)-2,4-dihydro-3H-1,2,4-triazol-3-one] | 89.1% | 95.2% | > 7.30
O=c1[nH]c(-c2c(F)cccc2Cl)nn1-c1ccc(-c2nc(-c3ccc(F)cc3)no2)cc1 [Example-30, 3-(2-Chloro-6-fluorophenyl)-1-(4-(3-(4-fluorophenyl)-1,2,4-oxadiazol-5-yl)phenyl)-1H-1,2,4-triazol-5(4H)-one] | 89.6% | 94.5% | > 7.30
CC(C)(C)n1nc(-c2cc(CNC(=O)C(F)(F)F)ccc2Cl)[nH]c1=O [Example-120, N-(3-(1-tert-butyl-4,5-dihydro-5-oxo-1H-1,2,4-triazol-3-yl)-4-chlorobenzyl)-2,2,2-trifluoroacetamide] | 11.4% | 46% | 
O=c1[nH]c(-c2c(F)cccc2Cl)nn1-c1ccc(C#Cc2ccc(Cl)cc2F)cc1 [Example-6, 5-(2-Chloro-6-fluorophenyl)-2-{4-[(4-chloro-2-fluorophenyl)ethynyl]phenyl}-2,4-dihydro-3H-1,2,4-triazol-3-one] | 83.9% | 87.7% | > 7.30
O=c1[nH]c(-c2c(F)cccc2Cl)nn1-c1ccc(Nc2cccc(C(F)(F)F)c2)cc1 [Example-9, 5-(2-Chloro-6-fluorophenyl)-2-(4-{[3-(trifluoromethyl)phenyl]amino}phenyl)-2,4-dihydro-3H-1,2,4-triazol-3-one] | 1.53% | 23.2% | 
COc1cc(-n2nc(-c3c(F)cccc3Cl)[nH]c2=O)ccc1C(=O)NC1(c2ccc(C(F)(F)F)cc2)CC1 [Example-27, 4-(3-(2-Chloro-6-fluorophenyl)-5-oxo-4,5-dihydro-1H-1,2,4-triazol-1-yl)-2-methoxy-N-(1-(4-(trifluoromethyl)phenyl)cyclopropyl)benzamide] | 72.8% | 97.5% | 
[O-][S+]1NC(c2c(F)cccc2Cl)=NN1c1ccc(Br)cc1 (stereo not drawn) [Example-1, 2-(4-Bromophenyl)-4-(2-chloro-6-fluorophenyl)-2,5-dihydro-1,2,3,5-thiatriazole-1-oxide] | 9.32% | 68.2% | 
COc1cc(-n2nc(-c3c(F)cccc3Cl)[nH]c2=O)ccc1C#Cc1cccc(Cl)c1F [Example-60, 1-(4-((3-Chloro-2-fluorophenyl)ethynyl)-3-methoxyphenyl)-3-(2-chloro-6-fluorophenyl)-1H-1,2,4-triazol-5(4H)-one] | 95.4% | 93.1% | > 7.30
O=c1[nH]c(-c2c(F)cccc2Cl)nn1-c1ccc(-c2ccc(C(F)(F)F)nc2)cc1 [Example-2, 5-(2-Chloro-6-fluorophenyl)-2-{4-[6-(trifluoromethyl)pyridin-3-yl]phenyl}-2,4-dihydro-3H-1,2,4-triazol-3-one] | 18% | 19% | 

Further lines, results first:

inhibition at 1 µM | inhibition at 10 µM | pIC50 | SMILES
96.1% | 98.3% | > 7.30 | O=C(NCc1ccc(Cl)c(-c2nn(-c3ccc(C(F)(F)F)cc3)c(=O)[nH]2)c1)C1CCCC1 [Example-185, N-(4-Chloro-3-(5-oxo-1-(4-(trifluoromethyl)phenyl)-4,5-dihydro-1H-1,2,4-triazol-3-yl)benzyl)cyclopentanecarboxamide]
50.6% | 95.2% |  | COc1cc(-c2nn(-c3c(Cl)cccc3Cl)c(=O)[nH]2)ccc1C(=O)Nc1ccc(C)cc1Cl [Example-179, N-(2-Chloro-4-methylphenyl)-4-(1-(2,6-dichlorophenyl)-4,5-dihydro-5-oxo-1H-1,2,4-triazol-3-yl)-2-methoxybenzamide]
88.2% | 94.3% | > 7.30 | CC(C)(C)C(=O)NCc1ccc(Cl)c(-c2nn(-c3ccc(C#CC4CC4)cc3F)c(=O)[nH]2)c1 [Example-181, N-(4-Chloro-3-(1-(4-(2-cyclopropylethynyl)-2-fluorophenyl)-4,5-dihydro-5-oxo-1H-1,2,4-triazol-3-yl)benzyl)pivalamide]
45.8% | 89.5% |  | COc1cc(-c2nn(-c3c(Cl)cccc3Cl)c(=O)[nH]2)ccc1NC(=O)c1ccc(C(F)(F)F)cc1 [Example-176, N-(4-(1-(2,6-Dichlorophenyl)-4,5-dihydro-5-oxo-1H-1,2,4-triazol-3-yl)-2-methoxyphenyl)-4-(trifluoromethyl)benzamide]
16.3% | 72.5% |  | CC(C)(C)C(=O)NCc1ccc(Cl)c(-c2nn(C(C)(C)C)c(=O)[nH]2)c1 [Example-121, N-(3-(1-tert-Butyl-4,5-dihydro-5-oxo-1H-1,2,4-triazol-3-yl)-4-chlorobenzyl)pivalamide]
99% | 99.7% | > 7.30 | Cc1ccc(-n2nc(-c3cc(CNC(=O)C(C)(C)C)ccc3Cl)[nH]c2=O)cc1C(F)(F)F [Example-158, N-(4-Chloro-3-(1-(3-(trifluoromethyl)-4-methylphenyl)-4,5-dihydro-5-oxo-1H-1,2,4-triazol-3-yl)benzyl)pivalamide]
95.2% | 100% | > 7.30 | Cc1cc(-n2nc(-c3cc(CNC(=O)C(C)(C)C)ccc3Cl)[nH]c2=O)ccc1Cl [Example-154, N-(4-Chloro-3-(1-(4-chloro-3-methylphenyl)-4,5-dihydro-5-oxo-1H-1,2,4-triazol-3-yl)benzyl)pivalamide]
98.9% | 97.8% | > 7.30 | CC(C)(C)C(=O)NCc1ccc(Cl)c(-n2nc(-c3ccc(F)c(C(F)(F)F)c3)[nH]c2=O)c1 [Example-148, N-(4-Chloro-3-(3-(4-fluoro-3-(trifluoromethyl)phenyl)-4,5-dihydro-5-oxo-1,2,4-triazol-1-yl)benzyl)pivalamide]
91.8% | 89.3% | > 7.30 | CC(C)(C)C(=O)NCc1cc(-c2nn(-c3ccc(F)c(C(F)(F)F)c3)c(=O)[nH]2)c(Cl)cc1F [Example-128, N-(4-Chloro-2-fluoro-5-(1-(4-fluoro-3-(trifluoromethyl)phenyl)-4,5-dihydro-5-oxo-1H-1,2,4-triazol-3-yl)benzyl)pivalamide]
99.2% | 90.7% | > 7.30 | CC(C)C(=O)NCc1ccc(Cl)c(-n2nc(-c3ccc(C#CC(C)(C)C)cc3)[nH]c2=O)c1 [Example-143, N-(4-Chloro-3-(4,5-dihydro-3-(4-(3,3-dimethylbut-1-ynyl)phenyl)-5-oxo-1,2,4-triazol-1-yl)benzyl)isobutyramide]
